Measurements published in ChEMBL document CHEMBL5036334, “Balanced dual acting compounds targeting aromatase and estrogen receptor α as an emerging therapeutic opportunity to counteract estrogen responsive breast cancer” (Eur J Med Chem, 2021).

Tests used:
Aromatase = target: T1, Aromatase (Homo sapiens, UniProt P11511); experiment: Inhibition of human aromatase assessed as reduction in fluorescence intensity preincubated with NADPH regenerating system for 10 mins followed by substrate addition incubated for 60 mins by fluorescence based microplate reader analysis
T1 sequence (P11511 whole entry): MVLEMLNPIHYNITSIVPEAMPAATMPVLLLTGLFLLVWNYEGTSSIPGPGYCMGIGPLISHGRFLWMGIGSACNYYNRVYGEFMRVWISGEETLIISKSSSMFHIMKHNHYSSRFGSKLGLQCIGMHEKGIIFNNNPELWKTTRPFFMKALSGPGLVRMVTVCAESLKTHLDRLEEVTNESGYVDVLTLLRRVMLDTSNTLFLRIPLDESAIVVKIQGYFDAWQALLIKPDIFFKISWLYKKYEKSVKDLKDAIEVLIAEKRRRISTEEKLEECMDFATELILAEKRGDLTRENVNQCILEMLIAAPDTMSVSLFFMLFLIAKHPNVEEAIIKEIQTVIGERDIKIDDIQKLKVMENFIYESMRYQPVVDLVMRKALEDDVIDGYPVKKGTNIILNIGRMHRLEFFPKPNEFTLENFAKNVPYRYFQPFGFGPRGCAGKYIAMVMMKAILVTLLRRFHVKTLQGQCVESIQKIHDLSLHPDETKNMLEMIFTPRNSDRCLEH

MCF-10A = experiment: Antiproliferative activity against human MCF-10A cells assessed as reduction in cell viability after 72 hrs by cell counter method; type: functional, cell-based
Estrogen receptor = target: T2, Estrogen receptor (Homo sapiens, UniProt P03372); experiment: Binding affinity to human ERalpha measured after 2 hrs by fluorescence polarization plate reader
T2 sequence (P03372 whole entry): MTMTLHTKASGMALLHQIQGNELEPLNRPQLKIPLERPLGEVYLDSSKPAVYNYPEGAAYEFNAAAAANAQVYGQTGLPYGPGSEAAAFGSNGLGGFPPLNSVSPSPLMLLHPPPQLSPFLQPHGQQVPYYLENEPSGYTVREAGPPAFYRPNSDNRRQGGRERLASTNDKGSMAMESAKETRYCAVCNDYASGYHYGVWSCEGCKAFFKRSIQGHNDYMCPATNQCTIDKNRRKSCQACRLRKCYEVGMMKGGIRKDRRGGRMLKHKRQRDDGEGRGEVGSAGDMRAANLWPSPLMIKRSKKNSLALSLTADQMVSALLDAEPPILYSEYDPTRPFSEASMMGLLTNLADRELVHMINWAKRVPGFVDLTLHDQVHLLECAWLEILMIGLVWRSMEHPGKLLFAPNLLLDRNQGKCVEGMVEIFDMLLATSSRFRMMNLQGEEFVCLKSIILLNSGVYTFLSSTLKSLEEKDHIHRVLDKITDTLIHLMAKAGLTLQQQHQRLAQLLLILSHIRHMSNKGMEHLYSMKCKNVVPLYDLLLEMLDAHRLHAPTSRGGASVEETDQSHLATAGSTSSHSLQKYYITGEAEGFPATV

MCF7 = experiment: Antiproliferative activity against human MCF7 cells assessed as reduction in cell viability after 72 hrs by cell counter method; type: functional, cell-based; details: MCF7, 72 h

**Q.** What does the source list for `CC(Cc1cccnc1)=C(c1ccc(O)cc1)c1ccc(O)cc1`?
**A.** IC50 (Aromatase): 861 nM; IC50 (MCF-10A): 58.7 µM; IC50 (Estrogen receptor): 1770 nM; IC50 (MCF7): 41.2 µM

**Q.** How did the IC50 (Aromatase) turn out when `CCC(Cn1ccnc1)=C(c1ccc(O)cc1)c1ccc(O)cc1` was run?
**A.** 35 nM

**Q.** What about the IC50 (MCF-10A) of the same compound?
**A.** 34.7 µM

**Q.** What about the IC50 (Estrogen receptor) of the same compound?
**A.** 1800 nM

**Q.** What about the IC50 (MCF7) of the same compound?
**A.** 24.3 µM

**Q.** How did the IC50 (Aromatase) turn out when `CCC(CCc1c[nH]cn1)=C(c1ccc(O)cc1)c1ccc(O)cc1` was run?
**A.** 52 nM

**Q.** What about the IC50 (MCF-10A) of the same compound?
**A.** > 100 µM

**Q.** What about the IC50 (Estrogen receptor) of the same compound?
**A.** 197 nM

**Q.** And the IC50 (MCF7)?
**A.** 37.1 µM

**Q.** `CCC(=C(c1ccc(O)cc1)c1ccc(O)cc1)c1c[nH]cn1` was tested. Which IC50 (Aromatase) did it give?
**A.** 952 nM

**Q.** And the IC50 (MCF-10A)?
**A.** > 100 µM

**Q.** And the IC50 (Estrogen receptor)?
**A.** 1070 nM

**Q.** What about the IC50 (MCF7) of the same compound?
**A.** 60 µM

**Q.** With `CC(=C(c1ccc(O)cc1)c1ccc(O)cc1)c1cccnc1` as the compound, how does the IC50 (Aromatase) read?
**A.** > 10000 nM

**Q.** What about the IC50 (MCF-10A) of the same compound?
**A.** 41.7 µM

**Q.** And the IC50 (Estrogen receptor)?
**A.** 76 nM

**Q.** What about the IC50 (MCF7) of the same compound?
**A.** 5.3 µM

**Q.** For `CCC(Cc1cccnc1)=C(c1ccc(O)cc1)c1ccc(O)cc1`, which IC50 (Aromatase) is on record?
**A.** 23 nM

**Q.** And the IC50 (MCF-10A)?
**A.** > 100 µM

**Q.** What about the IC50 (Estrogen receptor) of the same compound?
**A.** 19 nM

**Q.** And the IC50 (MCF7)?
**A.** 27.6 µM

**Q.** For `CC(CCc1c[nH]cn1)=C(c1ccc(O)cc1)c1ccc(O)cc1`, which IC50 (Aromatase) is on record?
**A.** 63 nM

**Q.** What about the IC50 (MCF-10A) of the same compound?
**A.** 50.4 µM

**Q.** What about the IC50 (Estrogen receptor) of the same compound?
**A.** 1740 nM

**Q.** And the IC50 (MCF7)?
**A.** 39.8 µM

**Q.** What does the source list for `CCC(=C(c1ccc(O)cc1)c1ccc(O)cc1)c1cccnc1`?
**A.** IC50 (Aromatase): 1250 nM; IC50 (MCF-10A): 17 µM; IC50 (Estrogen receptor): > 10000 nM; IC50 (MCF7): 10 µM

**Q.** Which IC50 (Aromatase) does the source give for `CC(=C(c1ccc(O)cc1)c1ccc(O)cc1)c1c[nH]cn1` here?
**A.** 596 nM

**Q.** And the IC50 (MCF-10A)?
**A.** > 100 µM

**Q.** And the IC50 (Estrogen receptor)?
**A.** 223 nM

**Q.** And the IC50 (MCF7)?
**A.** 58 µM

**Q.** For `CC(Cn1ccnc1)=C(c1ccc(O)cc1)c1ccc(O)cc1`, which IC50 (Aromatase) is on record?
**A.** 1000 nM

**Q.** And the IC50 (MCF-10A)?
**A.** 52.5 µM

**Q.** And the IC50 (Estrogen receptor)?
**A.** 4950 nM

**Q.** What about the IC50 (MCF7) of the same compound?
**A.** 37 µM

**Q.** For `CCC(CCc1cccnc1)=C(c1ccc(O)cc1)c1ccc(O)cc1`, which IC50 (Aromatase) is on record?
**A.** 900 nM

**Q.** What about the IC50 (MCF-10A) of the same compound?
**A.** 20 µM

**Q.** What about the IC50 (Estrogen receptor) of the same compound?
**A.** 33 nM

**Q.** What about the IC50 (MCF7) of the same compound?
**A.** 42.1 µM

**Q.** For `CC(CCc1cccnc1)=C(c1ccc(O)cc1)c1ccc(O)cc1`, which IC50 (Aromatase) is on record?
**A.** 3240 nM

**Q.** What about the IC50 (MCF-10A) of the same compound?
**A.** > 100 µM

**Q.** What about the IC50 (Estrogen receptor) of the same compound?
**A.** 313 nM

**Q.** And the IC50 (MCF7)?
**A.** > 100 µM

**Q.** What does the source list for `CC/C(=C(\c1ccc(O)cc1)c1ccc(OCCNC)cc1)c1ccccc1` [ENDOXIFEN]?
**A.** IC50 (Aromatase): > 10000 nM; IC50 (MCF-10A): > 10 µM; IC50 (Estrogen receptor): 30 nM; IC50 (MCF7): 0.1 µM

**Q.** Which IC50 (MCF-10A) does the source give for `N#Cc1ccc(C(c2ccc(C#N)cc2)n2cncn2)cc1` [LETROZOLE] here?
**A.** > 10 µM

**Q.** What about the IC50 (Estrogen receptor) of the same compound?
**A.** > 10000 nM

**Q.** And the IC50 (MCF7)?
**A.** 4.1 µM
